The text below walks through data of PubChem BioAssay (NCI).

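Values below derive from 48-hour exposures of cells grown in 96-well plates, with endpoints linearly interpolated between the two concentrations bracketing the appropriate inhibition level. Here, GI50 denotes the concentration required for 50% inhibition of growth. TGI: total growth inhibition.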

Among the test systems are CAKI-1 renal; CCRF-CEM leukemia; HCC-2998 colon; KM12 colon; NCI-H23 lung; OVCAR-3 ovarian; RXF 393 renal; SF-295 CNS; SN12C renal; UACC-62 melanoma.
Holding throughout (experiment): growth of human tumour cells (NCI), 48 h

Turning to `Cn1c(=O)c(Oc2ccc(F)cc2F)cc2cnc(NC3CCC(O)CC3)nc21` (stereo not given), the GI50 in the assay with CAKI-1 renal, in the assay with CCRF-CEM leukemia, in the assay on HCC-2998 colon, in the assay on KM12 colon, with NCI-H23 lung and with OVCAR-3 ovarian was > 25 µM each time. Also, the GI50 with RXF 393 renal, in the assay with SF-295 CNS, with SN12C renal and in the assay on UACC-62 melanoma was > 25 µM throughout. Also, the TGI in the assay on CAKI-1 renal, with CCRF-CEM leukemia, in the assay on HCC-2998 colon, in the assay on KM12 colon, in the assay on NCI-H23 lung and in the assay with OVCAR-3 ovarian was > 25 µM each time. Further, the TGI in the assay with RXF 393 renal, in the assay on SF-295 CNS, with SN12C renal and with UACC-62 melanoma was > 25 µM throughout.
For the molecule `CCC(=C(c1ccc(OCCN(CC)CC)cc1)c1ccc(OCCN(CC)CC)cc1)c1ccc(Cl)cc1`, the GI50 in the assay on CAKI-1 renal was 0.515 µM; with CCRF-CEM leukemia it was 0.641 µM; in the assay with HCC-2998 colon, 0.532 µM; in the assay with KM12 colon it was 0.611 µM; in the assay with NCI-H23 lung, 0.652 µM; in the assay on OVCAR-3 ovarian it was 0.577 µM. In addition, the GI50 is 0.485 µM in the assay on RXF 393 renal, 0.615 µM in the assay on SF-295 CNS, 0.606 µM in the assay with SN12C renal and 0.592 µM in the assay on UACC-62 melanoma. The TGI with CAKI-1 renal came to 0.984 µM; with CCRF-CEM leukemia it was 1.74 µM; in the assay on HCC-2998 colon, 1.02 µM; in the assay on KM12 colon, 1.18 µM; with NCI-H23 lung it was 1.41 µM; in the assay on OVCAR-3 ovarian, 1.14 µM. For the same molecule, the TGI with RXF 393 renal was found to be 0.962 µM; in the assay with SF-295 CNS, 1.19 µM; with SN12C renal it was 1.24 µM; with UACC-62 melanoma, 1.13 µM.
For the molecule `Nc1ccc2ncc(Nc3ccc(Cl)c(Cl)c3)nc2c1`, the TGI with CAKI-1 renal was 67.3 µM; in the assay on CCRF-CEM leukemia, 65.6 µM; with HCC-2998 colon, 32.8 µM; in the assay with KM12 colon, > 100 µM; in the assay with NCI-H23 lung it was 47.9 µM; in the assay on OVCAR-3 ovarian, 40.1 µM. The TGI in the assay with RXF 393 renal is 55.2 µM; with SF-295 CNS, 49.9 µM; in the assay with SN12C renal, > 100 µM; in the assay on UACC-62 melanoma it was 50.9 µM.
In the case of `O=C(/C=C/c1ccc(OCC(=O)N2CCN(c3ccccc3)CC2)cc1)c1ccccc1`, the TGI was > 100 µM in the assay on CAKI-1 renal; > 25.6 µM with CCRF-CEM leukemia; > 72.4 µM in the assay on HCC-2998 colon; > 75 µM in the assay with KM12 colon; 85.6 µM with NCI-H23 lung; > 100 µM in the assay with OVCAR-3 ovarian. In addition, the TGI with RXF 393 renal was 51.6 µM; in the assay with SF-295 CNS, > 100 µM; in the assay with SN12C renal it was > 100 µM; in the assay with UACC-62 melanoma, > 59.7 µM.
As to `CC(C)(CCc1nc2ccccc2[nH]1)C(=O)O`, the TGI with CAKI-1 renal, in the assay with CCRF-CEM leukemia, in the assay on HCC-2998 colon, in the assay with KM12 colon, in the assay on NCI-H23 lung and with OVCAR-3 ovarian was > 100 µM throughout. Moreover, the TGI in the assay on RXF 393 renal, in the assay on SF-295 CNS, with SN12C renal and with UACC-62 melanoma was > 100 µM in each case.
In the case of `CS(=O)(=O)Nc1ccc(Nc2c3ccccc3nc3cc(Cl)ccc23)cc1`, the GI50 in the assay on CAKI-1 renal was 0.397 µM; in the assay on CCRF-CEM leukemia it was 0.317 µM; in the assay on HCC-2998 colon, 7.57 µM; in the assay on KM12 colon, 3.81 µM; with NCI-H23 lung, 1.67 µM; in the assay on OVCAR-3 ovarian it was 7.28 µM. In addition, the GI50 with RXF 393 renal was 1.77 µM; in the assay on SF-295 CNS it was 1.07 µM; in the assay with SN12C renal, 0.654 µM; in the assay with UACC-62 melanoma, 0.988 µM. Besides, the TGI with CAKI-1 renal came out at 8.68 µM; in the assay with CCRF-CEM leukemia, 33.7 µM; in the assay with HCC-2998 colon, 22.9 µM; with KM12 colon, 18.5 µM; in the assay with NCI-H23 lung, 18.9 µM; in the assay on OVCAR-3 ovarian, 21.5 µM. Further, the TGI is 10.6 µM with RXF 393 renal, 15.3 µM with SF-295 CNS, 16.1 µM in the assay with SN12C renal and 12.9 µM with UACC-62 melanoma.
Regarding `COc1cccc(OC)c1/C=N\N1C(=O)c2ccccc2C1=O`, the TGI is > 100 µM in the assay on CAKI-1 renal; > 100 µM in the assay on CCRF-CEM leukemia; 91.9 µM in the assay with HCC-2998 colon; > 100 µM in the assay on KM12 colon; > 100 µM with NCI-H23 lung; 44.1 µM in the assay on OVCAR-3 ovarian. In addition, the TGI was 62.1 µM in the assay with RXF 393 renal, > 100 µM in the assay with SF-295 CNS, > 100 µM with SN12C renal and > 100 µM in the assay with UACC-62 melanoma.
Turning to `COc1cc(-c2nn(-c3cccc(NC(=O)c4cccc(C(F)(F)F)c4)c3)cc2-c2ccncc2)ccc1Cl`, the GI50 with CAKI-1 renal is 2.01 µM; in the assay on CCRF-CEM leukemia, 1.45 µM; in the assay with HCC-2998 colon it was 2.24 µM; in the assay with KM12 colon, 1.66 µM; with NCI-H23 lung, 1.56 µM; in the assay on OVCAR-3 ovarian, 1.2 µM. In addition, the GI50 is 0.812 µM in the assay on RXF 393 renal, 1.02 µM with SF-295 CNS, 3.31 µM in the assay with SN12C renal and 1.94 µM in the assay on UACC-62 melanoma. Besides, the TGI in the assay with CAKI-1 renal is > 50 µM; in the assay on CCRF-CEM leukemia it was > 50 µM; with HCC-2998 colon it was 17.6 µM; with KM12 colon, > 50 µM; with NCI-H23 lung, 32.5 µM; in the assay with OVCAR-3 ovarian it was 2.98 µM. Also, the TGI was 3.15 µM with RXF 393 renal, 3 µM with SF-295 CNS, > 50 µM with SN12C renal and > 50 µM in the assay on UACC-62 melanoma.
